The assay concerns the target T1, hGLP-1R (Homo sapiens, UniProt P43220).
T1 construct: expressed in transfected cells; host or cells: CHO-K1
Nature of the assay: Measurement of activity of GLP-1R agonist (cell-based luciferase assay), CHO-K1/hGLP-1R/CRE-luciferase cell line. As to conditions: GLP-1R activity; CHO-K1/hGLP-1R/CRE-luciferase cells, 9 concentrations, four hours of incubation, Bright-Glo luminescence. The procedure:
15,000 cells of a CHO-K1/hGLP-1R/CRE-luciferase cell line were seeded in a 96-well plate. A medium used herein was Ham’s F-12 Nutrient medium. The cells were incubated for 18 hours in a 5% CO2 incubator which was maintained at 37° C., and then treated with drugs. Each drug dispensed at 9 different concentrations was dissolved in a DMEM/F-12 + 1% FBS medium, and the cell line was treated with each of 100 µl thereof. After four hours of incubation, a Bright-Glo® luciferase assay system kit was used to add 30 µl of an assay reagent per well. A plate was stored at room temperature for 15 minutes, and then luminescence was measured using a SpectraMax M5 reader.

T1 sequence (P43220 24-463): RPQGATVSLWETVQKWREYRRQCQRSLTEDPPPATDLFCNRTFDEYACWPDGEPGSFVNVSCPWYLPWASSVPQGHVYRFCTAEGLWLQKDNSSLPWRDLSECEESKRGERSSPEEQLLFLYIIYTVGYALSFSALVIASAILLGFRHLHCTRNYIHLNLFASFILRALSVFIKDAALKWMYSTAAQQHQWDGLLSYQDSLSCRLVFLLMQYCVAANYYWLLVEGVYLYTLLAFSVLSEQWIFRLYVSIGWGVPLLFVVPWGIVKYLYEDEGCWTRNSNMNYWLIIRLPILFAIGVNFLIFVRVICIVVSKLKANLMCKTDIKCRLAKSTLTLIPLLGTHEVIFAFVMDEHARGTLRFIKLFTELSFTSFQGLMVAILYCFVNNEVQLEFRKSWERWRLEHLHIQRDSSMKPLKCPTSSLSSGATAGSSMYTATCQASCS

For `O=C(O)c1ccc2nc(Oc3ccc(-c4cccc(OCc5ccc(Cl)cc5F)n4)cc3F)n(C[C@@H]3CCCO3)c2c1` [Example 31, (S)-2-(4-(6-((4-chloro-2-fluorobenzyl)oxy)pyridin-2-yl)-2-fluorophenoxy)-1-((tetrahydrofuran-2-yl)methyl)-1H-benzo[d]imidazole-6-carboxylic acid], the EC50 is above 80 nM.

`N#Cc1ccc(COc2cccc(-c3ccc(Oc4nc5ccc(C(=O)O)cc5n4Cc4cnco4)cc3)n2)c(F)c1` [Example 9, 2-(4-(6-((4-cyano-2-fluorobenzyl)oxy)pyridin-2-yl)phenoxy)-1-(oxazol-5-ylmethyl)-1H-benzo[d]imidazole-6-carboxylic acid]: the EC50 came out at 0.7 nM.

In turn, `O=C(O)c1ccc2nc(Cc3ccc(-c4cccc(OCc5ccc(Cl)cc5F)n4)c(Cl)c3)n(C[C@@H]3CCOC3)c2c1` [Example 37, (S)-2-(3-chloro-4-(6-((4-chloro-2-fluorobenzyl)oxy)pyridin-2-yl)benzyl)-1-((tetrahydrofuran-3-yl)methyl)-1H-benzo[d]imidazole-6-carboxylic acid] had a half-maximal effective concentration (EC50) of 1.34 nM.

The compound `O=C(O)c1ccc2nc(Cc3ccc(-c4cccc(OCc5ccc(Cl)cc5F)n4)c(F)c3)n(C[C@@H]3CCO3)c2c1` [Example 15, (S)-2-(4-(6-((4-chloro-2-fluorobenzyl)oxy)pyridin-2-yl)-3-fluorobenzyl)-1-(oxetan-2-ylmethyl)-1H-benzo[d]imidazole-6-carboxylic acid] gave a half-maximal effective concentration (EC50) of 0.0035 nM.

With `O=C(O)c1ccc2nc(Cc3ccc(-c4cccc(OCc5ccc(Cl)cc5F)n4)c(F)c3)n(Cc3cnco3)c2c1` [Example 23, 2-(4-(6-((4-chloro-2-fluorobenzyl)oxy)pyridin-2-yl)-3-fluorobenzyl)-1-(oxazol-5-ylmethyl)-1H-benzo[d]imidazole-6-carboxylic acid], the response was half-maximal at 0.061 nM (EC50).

In turn, `O=C(O)c1ccc2nc(Cc3ccc(-c4cccc(OCc5ccc(Cl)cc5F)n4)cc3)n(C[C@H]3CCCO3)c2c1` [Example 13, (R)-2-(4-(6-((4-chloro-2-fluorobenzyl)oxy)pyridin-2-yl)benzyl)-1-((tetrahydrofuran-2-yl)methyl)-1H-benzo[d]imidazole-6-carboxylic acid] displayed a half-maximal effective concentration (EC50) of 2.02 nM.

Take `O=C(O)c1ccc2nc(Cc3ccc(-c4cccc(OCc5ccc(Cl)cc5F)n4)c(Cl)c3)n(Cc3cnco3)c2c1` [Example 22, 2-(3-chloro-4-(6-((4-chloro-2-fluorobenzyl)oxy)pyridin-2-yl)benzyl)-1-(oxazol-5-ylmethyl)-1H-benzo[d]imidazole-6-carboxylic acid]: the EC50 was determined as 0.635 nM.

In the case of `O=C(O)c1ccc2nc(Oc3ccc(-c4cccc(OCc5ccc(Cl)cc5F)n4)c(F)c3)n(C[C@@H]3CCO3)c2c1` [Example 20, (S)-2-(4-(6-((4-chloro-2-fluorobenzyl)oxy)pyridin-2-yl)-3-fluorophenoxy)-1-(oxetan-2-ylmethyl)-1H-benzo[d]imidazole-6-carboxylic acid], the EC50 is 0.121 nM.

Turning to `O=C(O)c1ccc2nc(Oc3ccc(-c4cccc(OCc5ccc(Cl)cc5F)n4)cc3Cl)n(C[C@@H]3CCCO3)c2c1` [Example 32, (S)-2-(2-chloro-4-(6-((4-chloro-2-fluorobenzyl)oxy)pyridin-2-yl)phenoxy)-1-((tetrahydrofuran-2-yl)methyl)-1H-benzo[d]imidazole-6-carboxylic acid], the EC50 stood at 3.43 nM.

In the case of `O=C(O)c1ccc2nc(Oc3ccc(-c4cccc(OCc5ccc(Cl)cc5F)n4)cc3)n(C[C@@H]3CCO3)c2c1` [Example 7, (S)-2-(4-(6-((4-chloro-2-fluorobenzyl)oxy)pyridin-2-yl)phenoxy)-1-(oxetan-2-ylmethyl)-1H-benzo[d]imidazole-6-carboxylic acid], the midpoint of the response, the EC50, lay at 0.066 nM.

As to `O=C(O)c1ccc2nc(Cc3ccc(-c4cccc(OCc5ccc(C(F)(F)F)cc5F)n4)cc3)n(C[C@@H]3CCCO3)c2c1` [Example 29, (S)-2-(4-(6-((2-fluoro-4-(trifluoromethyl)benzyl)oxy)pyridin-2-yl)benzyl)-1-((tetrahydrofuran-2-yl)methyl)-1H-benzo[d]imidazole-6-carboxylic acid], it took 0.208 nM to reach a half-maximal effect (EC50). Compared with the last compound, the EC50 is about 3.2-fold higher.

As for `CCCn1cnnc1Cn1c(Cc2ccc(-c3cccc(OCc4ccc(C(F)(F)F)cc4F)n3)cc2)nc2ccc(C(=O)O)cc21` [Example 25, 2-(4-(6-((2-fluoro-4-(trifluoromethyl)benzyl)oxy)pyridin-2-yl)benzyl)-1-((4-propyl-4H-1,2,4-triazol-3-yl)methyl)-1H-benzo[d]imidazole-6-carboxylic acid], the EC50 turned out to be 0.402 nM.

Consider `O=C(O)c1ccc2nc(Cc3ccc(-c4cccc(OCc5ccc(Cl)cc5F)n4)c(Cl)c3)n(C[C@@H]3CCCO3)c2c1` [Example 34, (S)-2-(3-chloro-4-(6-((4-chloro-2-fluorobenzyl)oxy)pyridin-2-yl)benzyl)-1-((tetrahydrofuran-2-yl)methyl)-1H-benzo[d]imidazole-6-carboxylic acid], for which a half-maximal response (EC50) required 0.087 nM.

`O=C(O)c1ccc2nc(Cc3ccc(-c4cccc(OCc5ccc(Cl)cc5F)n4)cc3)n(CC3CCCO3)c2c1` (stereo not drawn) [Example 1, 2-(4-(6-((4-chloro-2-fluorobenzyl)oxy)pyridin-2-yl)benzyl)-1-((tetrahydrofuran-2-yl)methyl)-1H-benzo[d]imidazole-6-carboxylic acid] displayed a concentration giving a half-maximal response (EC50) of 0.205 nM.

In turn, `O=C(O)c1ccc2nc(Cc3ccc(-c4cccc(OCc5ccc(Cl)cc5F)n4)cc3)n(C[C@@H]3CCOC3)c2c1` [Example 35, (S)-2-(4-(6-((4-chloro-2-fluorobenzyl)oxy)pyridin-2-yl)benzyl)-1-((tetrahydrofuran-3-yl)methyl)-1H-benzo[d]imidazole-6-carboxylic acid] gave an EC50 of 0.784 nM.

Compound `CCn1cncc1Cn1c(Cc2ccc(-c3cccc(OCc4ccc(C#N)cc4F)n3)cc2)nc2ccc(C(=O)O)cc21` [Example 4, 2-(4-(6-((4-cyano-2-fluorobenzyl)oxy)pyridin-2-yl)benzyl)-1-((1-ethyl-1H-imidazol-5-yl)methyl)-1H-benzo[d]imidazole-6-carboxylic acid] yielded an EC50 of 0.015 nM.

Compound `O=C(O)c1ccc2nc(Cc3ccc(-c4cccc(OCc5ccc(Cl)cc5F)n4)cc3F)n(C[C@@H]3CCCO3)c2c1` [Example 30, (S)-2-(4-(6-((4-chloro-2-fluorobenzyl)oxy)pyridin-2-yl)-2-fluorobenzyl)-1-((tetrahydrofuran-2-yl)methyl)-1H-benzo[d]imidazole-6-carboxylic acid] came in with an EC50 of 0.0327 nM.

Regarding `O=C(O)c1ccc2nc(Cc3ccc(-c4cccc(OCc5ccc(Cl)cc5F)n4)cc3)n(CC3CCCCO3)c2c1` (stereo not drawn) [Example 14, 2-(4-(6-((4-chloro-2-fluorobenzyl)oxy)pyridin-2-yl)benzyl)-1-((tetrahydro-2H-pyran-2-yl)methyl)-1H-benzo[d]imidazole-6-carboxylic acid], the 50% effective concentration (EC50) is above 80 nM.

As to `O=C(O)c1ccc2nc(Cc3ccc(-c4cccc(OCc5ccc(C(F)(F)F)cc5F)n4)cc3)n(Cc3cnco3)c2c1` [Example 21, 2-(4-(6-((2-fluoro-4-(trifluoromethyl)benzyl)oxy)pyridin-2-yl)benzyl)-1-(oxazol-5-ylmethyl)-1H-benzo[d]imidazole-6-carboxylic acid], it took 0.317 nM to reach a half-maximal effect (EC50).

In the case of `O=C(O)c1ccc2nc(Oc3c(F)cc(-c4cccc(OCc5ccc(Cl)cc5F)n4)cc3F)n(C[C@@H]3CCO3)c2c1` [Example 19, (S)-2-(4-(6-((4-chloro-2-fluorobenzyl)oxy)pyridin-2-yl)-2,6-difluorophenoxy)-1-(oxetan-2-ylmethyl)-1H-benzo[d]imidazole-6-carboxylic acid], the 50% effective concentration (EC50) came out at 1.33 nM.

`O=C(O)c1ccc2nc(Oc3ccc(-c4cccc(OCc5ccc(Cl)cc5F)n4)cc3)n(CC3CCCO3)c2c1` (stereo not drawn) [Example 28, 2-(4-(6-((4-chloro-2-fluorobenzyl)oxy)pyridin-2-yl)phenoxy)-1-((tetrahydrofuran-2-yl)methyl)-1H-benzo[d]imidazole-6-carboxylic acid] yielded a concentration for a half-maximal effect (EC50) of 1.12 nM. The EC50 values of the last two compounds are within 1.5-fold of each other.

Compound `O=C(O)c1ccc2nc(Cc3ccc(-c4cccc(OCc5ccc(Cl)cc5F)n4)cc3)n(C[C@@H]3CCO3)c2c1` [Example 2, (S)-2-(4-(6-((4-chloro-2-fluorobenzyl)oxy)pyridin-2-yl)benzyl)-1-(oxetan-2-ylmethyl)-1H-benzo[d]imidazole-6-carboxylic acid] showed a concentration for a half-maximal effect (EC50) of 0.007 nM.

For `N#Cc1ccc(COc2cccc(-c3ccc(Oc4nc5ccc(C(=O)O)cc5n4C[C@@H]4CCO4)cc3)n2)c(F)c1` [Example 6, (S)-2-(4-(6-((4-cyano-2-fluorobenzyl)oxy)pyridin-2-yl)phenoxy)-1-(oxetan-2-ylmethyl)-1H-benzo[d]imidazole-6-carboxylic acid], the concentration for a half-maximal effect (EC50) stood at 21 nM.

`O=C(O)c1ccc2nc(Cc3ccc(-c4cccc(OCc5ccc(Cl)cc5F)n4)cc3F)n(Cc3cnco3)c2c1` [Example 11, 2-(4-(6-((4-chloro-2-fluorobenzyl)oxy)pyridin-2-yl)-2-fluorobenzyl)-1-(oxazol-5-ylmethyl)-1H-benzo[d]imidazole-6-carboxylic acid]: the response was half-maximal at 0.0746 nM (EC50).

For the origin of these results see patent US20230203021A1, “GLP-1 RECEPTOR AGONIST, PHARMACEUTICAL COMPOSITION COMPRISING SAME, AND METHOD FOR PREPARING SAME” (LG CHEM, LTD., priority 2020, published 2023).
